pKi: −log10 of the molar value.
Target: Norepinephrine transporter (Rattus norvegicus, UniProt Q9JIA2)

c1ccc2c(CCC3CCNCC3)c[nH]c2c1
pKi: 5.56

COCCCC/C(=N\OCCN)c1ccc(C(F)(F)F)cc1 [(1E)-5-methoxy-1-[4-(trifluoromethyl)phenyl]pentan-1-one O-(2-aminoethyl)oxime]
pKi: 5.87

Source: BindingDB's records for doi:10.1016/s0014-2999(98)00241-6 (Mcgill University, 1998)
